US20240343710A1, “HETEROCYCLIC COMPOUNDS AND METHODS OF USE THEREOF” (1cBio, Inc., priority 2023, published 2024)
Where a name gives a salt, the structure may show the parent alone. Read-outs that look alike come from different tables or passages of the source.

Columns and labels:
[1] = tested on: DLD-1 wild-type colorectal adenocarcinoma cells; assay: Cell viability assay (Cell Titer-Glo, 7 days), DLD-1 wild-type; format: cell-based; conditions: Homo sapiens, 168 h, DLD-1 wild-type cells, read-out: DLD-1 wild-type % inh at 10 μM
Text: (§1) In some embodiments, the biological assay measures the effects that compounds of the present disclosure may have on the viability of cells, e.g., the viability of cancer cells. In some embodiments, DLD-1 wild-type and DLD-1 BRCA2(−/−) colorectal adenocarcinoma cells, an isogenic pair of cell lines differing in the presence and absence, respectively, of both BRCA2 alleles, are used to measure the effect of the disclosed compounds on the viability of cancer cells. In some embodiments, the cells are harvested during the logarithmic growth period, counted, and seeded at a specified count in the wells of a 96- or 384-well cell culture plate. In some embodiments, after seeding, the cells are incubated, e.g., at 37° C., 5% CO2 overnight. In some embodiments, the cells are treated with compounds, e.g., with serially diluted test compounds at 8-11 concentrations within a desired concentration range, e.g., from 1 nM-10 μM, for the generation of dose-response curves. In some embodiments, the plate is further incubated, e.g., for another 3-7 days in a humidified incubator at 37° C. and 5% CO2. In some embodiments, cell viability is assessed by luminescence measurement after addition of Cell Titer-Glo reagent (Promega, Madison, Wis.) according to the manufacturer's instructions. In some embodiments, cell viability IC50 values are calculated using XLFit, equation 201: y=A+((B−A)/(1+((x/C)^D))), where A=bottom, B=top, C=IC50, and D=slope. In some embodiments, the effects of the test compounds on the viability of other cell lines such as MDA-MB-436, MDA-MB-231, SUM149PT, HCC1395, and UWB1.289 are determined in an analogous method.
(§2) Compounds of the present disclosure were tested for their effects on the viability of cancer cells. DLD-1 wild-type and DLD-1 BRCA2(−/−) colorectal adenocarcinoma cells, an isogenic pair of cell lines differing in the presence and absence, respectively, of both BRCA2 alleles, were used. The cells were harvested during the logarithmic growth period, counted, and seeded at 50 cells/well for DLD-1 wild-type and 200 cells/well for DLD-1 BRCA2(−/−) in a 384-well cell culture plate. After seeding, cells were incubated at 37° C., 5% CO2 overnight. Cells were treated with serially diluted test compounds at 10 concentrations (e.g., from 1.5 nM-30 μM) for generation of dose response curves, or at a single concentration. The plate was further incubated for another 7 days in a humidified incubator at 37° C. and 5% CO2. Cell viability was assessed by luminescence measurement after addition of Cell Titer-Glo reagent (Promega, Madison, Wis.) according to the manufacturer's instructions. Cell viability IC50 values were calculated using XLFit, equation 201. y=A+((B−A)/(1+((x/C)^D))), where A=bottom, B=top, C=IC50, and D=slope. IC50 values are shown in Table B and are presented in ranges, in which “+++”<300 nM, 300 nM≤“++”<3000 nM, and “+”≥3000 nM. Values for percent inhibition at 10 μM are also shown in Table B and are presented in ranges, in which “***”≥67%, 33%: “**”≤67%, and “*”<33%. Effects of the test compounds on the viability of other cell lines such as MDA-MB-436, MDA-MB-231, SUM149PT, HCC1395, and UWB1.289 are determined in an analogous method.

[2] = tested on: DLD-1 BRCA2(−/−) colorectal adenocarcinoma cells; assay: Cell viability assay (Cell Titer-Glo, 7 days), DLD-1 BRCA2(−/−); format: cell-based; conditions: Homo sapiens, 168 h, DLD-1 BRCA2(−/−) cells
Text: as §1, §2

recombinant human PARP1 = recombinant human PARP1 (Homo sapiens, UniProt P09874); assay: PARP1 fluorescence polarization binding assay; conditions: GST-tagged PARP1 20 nM, PARP1-FL probe 3 nM
Chain of recombinant human PARP1 (P09874 whole entry): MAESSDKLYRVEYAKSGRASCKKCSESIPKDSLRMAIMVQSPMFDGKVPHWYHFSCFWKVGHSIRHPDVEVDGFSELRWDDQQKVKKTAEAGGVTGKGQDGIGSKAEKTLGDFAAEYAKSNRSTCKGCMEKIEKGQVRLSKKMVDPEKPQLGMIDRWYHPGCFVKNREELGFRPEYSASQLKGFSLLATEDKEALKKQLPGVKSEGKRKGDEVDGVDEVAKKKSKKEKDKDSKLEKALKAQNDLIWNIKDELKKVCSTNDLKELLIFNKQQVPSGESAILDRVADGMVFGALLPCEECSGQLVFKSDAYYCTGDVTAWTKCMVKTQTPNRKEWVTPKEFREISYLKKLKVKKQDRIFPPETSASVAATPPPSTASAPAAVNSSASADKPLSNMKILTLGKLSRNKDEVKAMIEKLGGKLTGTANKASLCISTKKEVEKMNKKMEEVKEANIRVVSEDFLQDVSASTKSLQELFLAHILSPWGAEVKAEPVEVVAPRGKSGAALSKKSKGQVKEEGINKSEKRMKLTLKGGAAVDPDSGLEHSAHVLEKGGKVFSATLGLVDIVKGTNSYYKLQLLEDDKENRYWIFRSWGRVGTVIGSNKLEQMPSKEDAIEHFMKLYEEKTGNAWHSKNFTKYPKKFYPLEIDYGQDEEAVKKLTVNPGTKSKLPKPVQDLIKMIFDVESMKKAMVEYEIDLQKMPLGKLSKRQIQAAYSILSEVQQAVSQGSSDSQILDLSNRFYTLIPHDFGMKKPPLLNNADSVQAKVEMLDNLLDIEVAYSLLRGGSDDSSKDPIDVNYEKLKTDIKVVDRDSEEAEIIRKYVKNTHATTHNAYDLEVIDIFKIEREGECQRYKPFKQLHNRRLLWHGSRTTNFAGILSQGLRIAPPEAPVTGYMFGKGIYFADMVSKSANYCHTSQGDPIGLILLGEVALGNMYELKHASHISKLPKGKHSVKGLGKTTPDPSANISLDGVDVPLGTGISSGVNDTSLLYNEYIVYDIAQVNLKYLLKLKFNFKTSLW
Experimental: In some embodiments, the biological assay is described in the Examples herein. In some embodiments, the biological assay measures PARP-1 binding by way of fluorescence polarization measurements. In some embodiments, binding of a test compound to recombinant human PARP-1 reduces the amount of binding of a fluorescent probe, and consequently reduces the detected level of fluorescence polarization. In some test compound stock solutions are prepared in a solvent, e.g., DMSO, and are serially diluted into a range of concentrations, e.g., 15 concentrations, 14 concentrations, 13 concentrations, 12 concentrations, 11 concentrations, 10 concentrations, 9 concentrations, 8 concentrations, 7 concentrations, 6 concentrations, or 5 concentrations, by a dilution factor, e.g., a 10-fold dilution factor, a 9-fold dilution factor, an 8-fold dilution factor, a 7-fold dilution factor, a 6-fold dilution factor, a 5-fold dilution factor, a 4-fold dilution factor, a 3-fold dilution factor, or a 2-fold dilution factor. In some embodiments, the serial dilutions, e.g., 100 nL of serial dilution, 90 nL of serial dilution, 80 nL of serial dilution, 70 nL of serial dilution, 60 nL of serial dilution, 50 nL of serial dilution, 30 nL of serial dilution, 20 nL of serial dilution, or 10 nL of serial dilution, are added to a multi-welled plate, e.g., a 1536-well plate, a 384-well plate, or a 96-well plate. In some embodiments, PARP-1, e.g., GST-tagged PARP-1, is diluted in assay buffer, e.g., 50 μL of assay buffer, 40 μL of assay buffer, e.g., 30 μL of assay buffer, 20 μL of assay buffer, 10 μL of assay buffer, or 5 μL of assay buffer, and is added to the plate. In some embodiments, the plate is centrifuged, e.g., at 1000 rpm for 1 min, and incubated, e.g., incubated for 30 minutes at room temperature (RT). In some embodiments, a fluorescent probe, e.g., 10 μL of 6 nM PARP1-FL (TOCRIS, Cat #6461), is diluted in an assay buffer and is added to the plate. In some embodiments, the final concentrations of PARP-1 and fluorescent probe are 20 nM and 3 nM, respectively, in a total volume of 20 μL. In some embodiments, the plate is centrifuged, e.g., at 1000 rpm for 1 minute, and the assay plate is incubated, e.g., for 4 h at RT. In some embodiments, the samples in each well are read using a plate reader, e.g., an Envision instrument using excitation=480 nm, and emission wavelength=FITC FP-P pol 535 nm & FITC FP-S pol 535 nm). In some embodiments, percent inhibition is calculated from mP values using Inhibition (%)=[1−(mPc−mPL)/(mPH−mPL)]×100%, where mPc, mPL, and mPH are the mP values of test compound, Low controls, and High controls, respectively. In some embodiments, binding IC50 values are calculated using XLFit (equation 201: y=A+((B−A)/(1+((x/C)^D))), where A=bottom, B=top, C=IC50, and D=slope) with a floating top and bottom for curves.
Compounds of the present disclosure were tested in a PARP1 fluorescence polarization binding assay at Pharmaron (Beijing, P.R. China). In this biochemical assay, binding of test compound to recombinant human PARP1 reduces the amount of binding of a fluorescent probe, and consequently reduces the detected level of fluorescence polarization. Test compound stock solutions were prepared in DMSO and then serially diluted into 10 concentrations by 3-fold dilution in a 384-well plate using a TECAN EVO200. Alternatively, a single concentration was prepared. 60 nL of each dilution was transferred to the plate using an Echo550 (Labcyte), and then 10 μL 40 nM GST-tagged PARP1 (BPS Bioscience, Cat #80501), diluted in assay buffer (50 mM Tris pH 8.0, 0.001% Triton X-100, 10 mM MgCl2, 150 mM NaCl), was added to the plate. After a centrifugation at 1000 rpm for 1 min, the assay plate was incubated for 30 min at RT. 10 μL 6 nM PARP1-FL (TOCRIS, Cat #6461), diluted using assay buffer, was then added to the plate. The final concentrations of PARP1 and PARP1-FL were 20 nM and 3 nM, respectively, in a total volume of 20 μL. […]

recombinant human PARP2 = recombinant human PARP2 (Homo sapiens, UniProt Q9UGN5); assay: PARP2 fluorescence polarization binding assay; conditions: read-out: PARP2 % inh at 10 μM
Chain of recombinant human PARP2 (Q9UGN5 whole entry): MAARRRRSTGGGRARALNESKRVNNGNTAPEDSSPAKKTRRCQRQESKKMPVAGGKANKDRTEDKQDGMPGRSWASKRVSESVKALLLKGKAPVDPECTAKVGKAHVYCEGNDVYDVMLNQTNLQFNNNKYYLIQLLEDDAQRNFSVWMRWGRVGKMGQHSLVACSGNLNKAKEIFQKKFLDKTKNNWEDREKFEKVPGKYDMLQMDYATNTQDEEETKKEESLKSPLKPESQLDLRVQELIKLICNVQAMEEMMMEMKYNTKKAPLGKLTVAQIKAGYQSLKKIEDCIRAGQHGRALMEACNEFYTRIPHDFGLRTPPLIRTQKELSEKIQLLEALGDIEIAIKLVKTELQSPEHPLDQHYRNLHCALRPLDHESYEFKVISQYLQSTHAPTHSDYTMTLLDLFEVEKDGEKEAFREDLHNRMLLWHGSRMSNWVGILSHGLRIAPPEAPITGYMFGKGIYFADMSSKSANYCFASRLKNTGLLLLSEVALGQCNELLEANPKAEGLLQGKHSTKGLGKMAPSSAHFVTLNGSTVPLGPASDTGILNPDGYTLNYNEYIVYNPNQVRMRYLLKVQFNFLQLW

[3] = percent inhibition at 10 μM, fluorescence polarization, GST-tagged PARP2 20 nM, PARP1-FL probe 3 nM

Row | Compound | inhibition at 10 µM [1] | IC50 [2] | IC50 (recombinant human PARP1) | inhibition at 10 µM (recombinant human PARP2; [3]) | inhibition at 10 µM (recombinant human PARP2)
1 | CCNC(=O)Nc1ncc(CN2CCN(c3ccc(C(=O)NC)nc3C)CC2)o1 [Compound 246, 5-(4-((2-(3-ethylureido)oxazol-5-yl)methyl)piperazin-1-yl)-N,6-dimethylpicolinamide] | < 33% | < 300 nM | < 100 nM | < 33% | 
2 | CCNC(=O)Nc1cc(CN2CCN(c3cnc4c(NC)nccc4c3)CC2)ccn1 [Compound 257, 1-ethyl-3-(4-((4-(8-(methylamino)-1,7-naphthyridin-3-yl)piperazin-1-yl)methyl)pyridin-2-yl)urea] | < 33% | 300 to 3000 nM | < 100 nM | 33 to 67% | 
3 | CNC(=O)c1ccc(N2CCN(Cc3ccnc(NC(=O)NC(C)C)c3)CC2)c(C)n1 [Compound 259, 5-(4-((2-(3-isopropylureido)pyridin-4-yl)methyl)piperazin-1-yl)-N,6-dimethylpicolinamide] | < 33% | 300 to 3000 nM | < 100 nM | < 33% | 
4 | CCNC(=O)Nc1nccc(CN2CCN(c3ccc(C(=O)NC)nc3C)CC2)c1C [Compound 260, 5-(4-((2-(3-ethylureido)-3-methylpyridin-4-yl)methyl)piperazin-1-yl)-N,6-dimethylpicolinamide hemiformate] | < 33% | 300 to 3000 nM | < 100 nM |  | < 33%
5 | CNC(=O)c1ccc(N2CCN(Cc3ccnc(NC(=O)NCCF)c3)CC2)c(C)n1 [Compound 261, 5-(4-((2-(3-(2-fluoroethyl)ureido)pyridin-4-yl)methyl)piperazin-1-yl)-N,6-dimethylpicolinamide] | < 33% | < 300 nM | < 100 nM | < 33% | 
6 | CNC(=O)c1ccc(N2CCN(Cc3ccnc(NC(=O)NCC(F)F)c3)CC2)c(C)n1 [Compound 262, 5-(4-((2-(3-(2,2-difluoroethyl)ureido)pyridin-4-yl)methyl)piperazin-1-yl)-N,6-dimethylpicolinamide] | < 33% | < 300 nM | < 100 nM | < 33% | 
7 | CCNC(=O)Nc1cc(CN2CCN(c3ccc(C#N)cn3)CC2)ccn1 [Compound 263, 1-(4-((4-(5-cyanopyridin-2-yl)piperazin-1-yl)methyl)pyridin-2-yl)-3-ethylurea] | < 33% | < 300 nM | < 100 nM | < 33% | 
8 | CCNC(=O)Nc1cc(CN2CCN3c4ccc(C(=O)NC)nc4OC[C@H]3C2)ccn1 [Compound 264, (R)-3-((2-(3-ethylureido)pyridin-4-yl)methyl)-N-methyl-1,2,3,4,4a,5-hexahydropyrazino[1,2-d]pyrido[2,3-b][1,4]oxazine-8-carboxamide] | < 33% | < 300 nM | < 100 nM | 33 to 67% | 
9 | CCNC(=O)Nc1cc(CN2CCN(c3ccc(C#N)nc3)CC2)ccn1 [Compound 267, 1-(4-((4-(6-cyanopyridin-3-yl)piperazin-1-yl)methyl)pyridin-2-yl)-3-ethylurea formate] | < 33% | < 300 nM | < 100 nM |  | < 33%
10 | CCNC(=O)Nc1nccc(CN2CCN(c3ccc(C#N)cn3)CC2)c1F [Compound 268, 1-(4-((4-(5-cyanopyridin-2-yl)piperazin-1-yl)methyl)-3-fluoropyridin-2-yl)-3-ethylurea] | < 33% | < 300 nM | < 100 nM | < 33% | 
11 | CCNC(=O)Nc1cc(CN2CCN(c3ccc(NC(C)=O)nc3C)CC2)ccn1 [Compound 269, N-(5-(4-((2-(3-ethylureido)pyridin-4-yl)methyl)piperazin-1-yl)-6-methylpyridin-2-yl)acetamide] | < 33% | < 300 nM | < 100 nM | < 33% | 
12 | CCNC(=O)Nc1cc(CN2CCN(c3ccc(-c4ncc[nH]4)nc3C)CC2)ccn1 [Compound 272, 1-(4-((4-(6-(1H-imidazol-2-yl)-2-methylpyridin-3-yl)piperazin-1-yl)methyl)pyridin-2-yl)-3-ethylurea formate] | < 33% | < 300 nM | < 100 nM |  | < 33%
